Where two headings read alike, the source gives them in different places.
Columns and labels:
[1] = biological target: human orexin-2 receptor (Homo sapiens (Human), UniProt O43614); test: Intracellular calcium measurement (FLIPR), CHO cells expressing human orexin-2 receptor, 3 nM orexin-A; type: cell-based; details: read-out: IC50 OX2
Summary of the method: (§1)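 HBSS buffer with 0.1% BSA, NaHCO3 and 20 mM HEPES carries both compounds and agonist. Dye: fluo-4 AM (3 μM) with 5 mM probenecid. Compound exposure 120 min; peak signal scored against uninhibited orexin-A response.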

[2] = biological target: orexin-1 (Homo sapiens (Human), UniProt O43613); test: Intracellular calcium measurement (FLIPR), CHO cells expressing human orexin-1 receptor, 3 nM orexin-A; type: cell-based; details: read-out: IC50 OX1
Chain of orexin-1 (O43613 whole entry): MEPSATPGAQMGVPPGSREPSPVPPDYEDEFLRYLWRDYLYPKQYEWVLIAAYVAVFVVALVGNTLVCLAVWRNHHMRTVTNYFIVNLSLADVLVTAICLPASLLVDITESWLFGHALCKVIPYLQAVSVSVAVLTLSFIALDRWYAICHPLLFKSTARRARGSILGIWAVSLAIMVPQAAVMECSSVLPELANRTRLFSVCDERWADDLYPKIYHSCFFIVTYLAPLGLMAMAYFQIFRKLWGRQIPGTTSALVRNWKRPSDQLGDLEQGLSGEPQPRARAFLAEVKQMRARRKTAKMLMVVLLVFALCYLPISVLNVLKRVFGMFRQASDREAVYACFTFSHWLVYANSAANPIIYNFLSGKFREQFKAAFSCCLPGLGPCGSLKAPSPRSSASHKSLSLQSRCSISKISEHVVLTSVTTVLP
Summary of the method: as §1

[3] = CHO cells expressing human orexin-2 receptor, FLIPR, 3 nM orexin-A, geometric mean if determined several times
[4] = CHO cells expressing human orexin-1 receptor, FLIPR, 3 nM orexin-A, geometric mean if determined several times

Chain of human orexin-2 receptor (O43614 whole entry): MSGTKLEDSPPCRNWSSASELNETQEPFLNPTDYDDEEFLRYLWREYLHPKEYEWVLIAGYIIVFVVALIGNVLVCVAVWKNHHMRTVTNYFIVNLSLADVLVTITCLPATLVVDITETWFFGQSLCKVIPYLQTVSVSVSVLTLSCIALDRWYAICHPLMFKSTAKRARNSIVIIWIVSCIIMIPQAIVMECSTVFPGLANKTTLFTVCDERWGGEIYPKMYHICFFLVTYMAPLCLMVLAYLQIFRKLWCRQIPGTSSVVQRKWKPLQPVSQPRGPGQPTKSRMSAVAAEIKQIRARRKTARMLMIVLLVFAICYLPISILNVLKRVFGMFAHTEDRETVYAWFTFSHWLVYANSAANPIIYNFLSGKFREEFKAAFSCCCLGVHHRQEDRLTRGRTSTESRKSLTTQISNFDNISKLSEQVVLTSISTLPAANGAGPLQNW

Compound | IC50 [1, 3] [nM] | IC50 [2, 4] [nM] | IC50 [1] [nM] | IC50 [2] [nM]
CCOc1ncccc1-c1noc([C@@H]2CCCN2C(=O)c2ccccc2-n2nccn2)n1 [compound 218, {(S)-2-[3-(2-Ethoxy-pyridin-3-yl)-[1,2,4]oxadiazol-5-yl]-pyrrolidin-1-yl}-(2-[1,2,3]triazol-2-yl-phenyl)-methanone] | 99 | 331 | – | –
Cc1ccc(-n2nccn2)c(C(=O)N2CCC[C@H]2c2cc(-c3ccccc3)no2)c1 [Example 420, (5-Methyl-2-[1,2,3]triazol-2-yl-phenyl)-[(S)-2-(3-phenyl-isoxazol-5-yl)-pyrrolidin-1-yl]-methanone] | 133 | 1060 | – | –
COc1ccccc1-c1noc([C@@H]2CCCN2C(=O)c2cc(F)ccc2-n2nccn2)n1 [compound 233, (5-Fluoro-2-[1,2,3]triazol-2-yl-phenyl)-{(S)-2-[3-(2-methoxy-phenyl)-[1,2,4]oxadiazol-5-yl]-pyrrolidin-1-yl}-methanone] | 341 | 1410 | – | –
Cc1c(F)cccc1-c1noc([C@@H]2CCCN2C(=O)c2ccc(Cl)cc2-n2nccn2)n1 [compound 294] | 17 | 155 | – | –
O=C(c1cc(Cl)ccc1-n1nccn1)N1CCC[C@H]1c1nc(-c2ccccc2Cl)no1 [compound 236] | – | 1850 | 150 | –
Cc1c(Cl)cccc1-c1noc([C@@H]2CCCN2C(=O)c2cccc(F)c2-n2nccn2)n1 [compound 114] | – | – | 83 | 1080
Cc1cccc(-c2nnc([C@@H]3CCCN3C(=O)c3cc(C)ccc3-n3nccn3)o2)c1 [Example 438, (5-Methyl-2-[1,2,3]triazol-2-yl-phenyl)-[(S)-2-(5-m-tolyl-[1,3,4]oxadiazol-2-yl)-pyrrolidin-1-yl]-methanone] | 359 | 1490 | – | –
Cc1ccc(-n2cccn2)c(C(=O)N2CCC[C@H]2c2nc(-c3ccccc3OC(F)(F)F)no2)n1 [compound 160, (6-Methyl-3-pyrazol-1-yl-pyridin-2-yl)-{(S)-2-[3-(2-trifluoromethoxy-phenyl)-[1,2,4]oxadiazol-5-yl]-pyrrolidin-1-yl}-methanone] | 212 | 238 | – | –
Cc1onc(-c2ccccc2Cl)c1C(=O)N1CCC[C@H]1c1noc(-c2cccc(Cl)c2C)n1 [Ref 8] | > 21800 | > 26200 | – | –
COc1ccc(-n2nccn2)c(C(=O)N2CCC[C@H]2c2nc(-c3ccccc3OC)no2)c1 [compound 232, {(S)-2-[3-(2-Methoxy-phenyl)-[1,2,4]oxadiazol-5-yl]-pyrrolidin-1-yl}-(5-methoxy-2-[1,2,3]triazol-2-yl-phenyl)-methanone] | 78 | 134 | – | –
Cc1ccc(-n2nccn2)c(C(=O)N2CCC[C@H]2c2cc(-c3ccccc3OC(F)(F)F)n[nH]2)c1 [compound 532, (5-Methyl-2-[1,2,3]triazol-2-yl-phenyl)-{(S)-2-[5-(2-trifluoromethoxy-phenyl)-2H-pyrazol-3-yl]-pyrrolidin-1-yl}-methanone] | 146 | 286 | – | –
COc1c(Cl)cccc1-c1nc([C@@H]2CCCN2C(=O)c2ccc(Cl)cc2-n2nccn2)no1 [compound 349] | 3 | 27 | – | –
Cc1cc(C)nc(-c2noc([C@@H]3CCCN3C(=O)c3cc(C)ccc3-n3nccn3)n2)c1 [compound 12, {(S)-2-[3-(4,6-Dimethyl-pyridin-2-yl)-[1,2,4]oxadiazol-5-yl]-pyrrolidin-1-yl}-(5-methyl-2-[1,2,3]triazol-2-yl-phenyl)-methanone] | 816 | 796 | – | –
Cc1ccc(-n2nccn2)c(C(=O)N2CCC[C@H]2c2nc(-c3ccccc3CCO)no2)c1 [Example 87, ((S)-2-{3-[2-(2-Hydroxy-ethyl)-phenyl]-[1,2,4]oxadiazol-5-yl}-pyrrolidin-1-yl)-(5-methyl-2-[1,2,3]triazol-2-yl-phenyl)-methanone] | 70 | 439 | – | –
Cc1ccc(-n2nccn2)c(C(=O)N2CCC[C@H]2c2nc(-c3c(C)cncc3C)no2)c1 [compound 37, {(S)-2-[3-(3,5-Dimethyl-pyridin-4-yl)-[1,2,4]oxadiazol-5-yl]-pyrrolidin-1-yl}-(5-methyl-2-[1,2,3]triazol-2-yl-phenyl)-methanone] | 1060 | > 5640 | – | –
Cc1cc(F)cc(C(=O)N2CCC[C@H]2c2nc(-c3cccc(Cl)c3C)no2)c1-n1nccn1 [compound 132] | – | 831 | 250 | –
Cc1ccc(C)c(-c2nc([C@@H]3CCCN3C(=O)c3cc(Cl)ccc3-n3nccn3)no2)c1 [compound 396] | – | – | 15 | 134

Further compounds by falling IC50 [1, 3], results first:

IC50 [1, 3] [nM] | IC50 [2, 4] [nM] | Compound | IC50 [1] [nM] | IC50 [2] [nM]
65 | 35 | Cc1ccc(C(=O)N2CCC[C@@]2(C)c2nnc(-c3ccccc3OC(F)(F)F)[nH]2)c(-c2ccccc2)c1 [compound 548, (5-Methyl-biphenyl-2-yl)-{(S)-2-methyl-2-[5-(2-trifluoromethoxy-phenyl)-4H-[1,2,4]triazol-3-yl]-pyrrolidin-1-yl}-methanone] | – | –
52 | 198 | COc1cc(O)ccc1-c1noc([C@@H]2CCCN2C(=O)c2cc(C)ccc2-n2nccn2)n1 [compound 64, {(S)-2-[3-(4-Hydroxy-2-methoxy-phenyl)-[1,2,4]oxadiazol-5-yl]-pyrrolidin-1-yl}-(5-methyl-2-[1,2,3]triazol-2-yl-phenyl)-methanone] | – | –
27 | 156 | O=C(c1ccccc1-n1nccn1)N1CCC[C@H]1c1nnc(-c2ccccc2OC(F)(F)F)[nH]1 [compound 503, (2-[1,2,3]Triazol-2-yl-phenyl)-{(S)-2-[5-(2-trifluoromethoxy-phenyl)-4H-[1,2,4]triazol-3-yl]-pyrrolidin-1-yl}-methanone] | – | –
18 | 18 | COc1ccccc1-c1cnc([C@@H]2CCCN2C(=O)c2cc(C)ccc2-n2nccn2)[nH]1 [Example 516, {(S)-2-[5-(2-Methoxy-phenyl)-1H-imidazol-2-yl]-pyrrolidin-1-yl}-(5-methyl-2-[1,2,3]triazol-2-yl-phenyl)-methanone] | – | –
11 | 19 | CCc1ccccc1-c1noc([C@@H]2CCCN2C(=O)c2cc(C)ccc2-n2nccn2)n1 [compound 25, {(S)-2-[3-(2-Ethyl-phenyl)-[1,2,4]oxadiazol-5-yl]-pyrrolidin-1-yl}-(5-methyl-2-[1,2,3]triazol-2-yl-phenyl)-methanone] | – | –
10 | 128 | COc1cc(C(=O)N2CCC[C@H]2c2noc(-c3cccc(OC)c3C)n2)c(-n2nccn2)cc1C [compound 358, {(S)-2-[5-(3-Methoxy-2-methyl-phenyl)-[1,2,4]oxadiazol-3-yl]-pyrrolidin-1-yl}-(5-methoxy-4-methyl-2-[1,2,3]triazol-2-yl-phenyl)-methanone] | – | –
9 | 4 | Cc1ccc(-n2nccn2)c(C(=O)N2CCC[C@H]2c2nc(-c3cccc4cc[nH]c34)no2)c1 [compound 46, {(S)-2-[3-(1H-Indol-7-yl)-[1,2,4]oxadiazol-5-yl]-pyrrolidin-1-yl}-(5-methyl-2-[1,2,3]triazol-2-yl-phenyl)-methanone] | – | –
7 | 42 | Cc1ccc(-n2nccn2)c(C(=O)N2CCC[C@H]2c2noc(-c3cccc(Cl)c3C)n2)c1 [Example 318, {(S)-2-[5-(3-Chloro-2-methyl-phenyl)-[1,2,4]oxadiazol-3-yl]-pyrrolidin-1-yl}-(5-methyl-2-[1,2,3]triazol-2-yl-phenyl)-methanone] | – | –
6 | 19 | CCOc1ncccc1-c1noc([C@@H]2CCCN2C(=O)c2cc(C)ccc2-c2ncco2)n1 [compound 224, {(S)-2-[3-(2-Ethoxy-pyridin-3-yl)-[1,2,4]oxadiazol-5-yl]-pyrrolidin-1-yl}-(5-methyl-2-oxazol-2-yl-phenyl)-methanone] | – | –
5 | 47 | COc1cc(C(=O)N2CCC[C@H]2c2nc(-c3ccccc3OC(F)F)no2)c(-n2nccn2)cc1C [compound 189, {(S)-2-[3-(2-Difluoromethoxy-phenyl)-[1,2,4]oxadiazol-5-yl]-pyrrolidin-1-yl}-(5-methoxy-4-methyl-2-[1,2,3]triazol-2-yl-phenyl)-methanone] | – | –
4 | 27 | Cc1ccc(C(=O)N2CCC[C@H]2c2nnc(-c3ccccc3OC(F)(F)F)[nH]2)c(-n2nccn2)c1 [compound 501, (4-Methyl-2-[1,2,3]triazol-2-yl-phenyl)-{(S)-2-[5-(2-trifluoromethoxy-phenyl)-4H-[1,2,4]triazol-3-yl]-pyrrolidin-1-yl}-methanone] | – | –
4 | 22 | CCOc1ccccc1-c1noc([C@@H]2CCCN2C(=O)c2cc(C)ccc2-n2nccn2)n1 [compound 40, {(S)-2-[3-(2-Ethoxy-phenyl)-[1,2,4]oxadiazol-5-yl]-pyrrolidin-1-yl}-(5-methyl-2-[1,2,3]triazol-2-yl-phenyl)-methanone] | – | –
3 | 130 | Cc1ccc(-n2nccn2)c(C(=O)N2CCC[C@H]2c2noc(-c3cccc4c3OCC4)n2)c1 [compound 307, {(S)-2-[5-(2,3-Dihydro-benzofuran-7-yl)-[1,2,4]oxadiazol-3-yl]-pyrrolidin-1-yl}-(5-methyl-2-[1,2,3]triazol-2-yl-phenyl)-methanone] | – | –
2 | 25 | COc1cc(C(=O)N2CCC[C@H]2c2noc(-c3cccc(C)c3C)n2)c(-n2nccn2)cc1C [compound 403, {(S)-2-[5-(2,3-Dimethyl-phenyl)-[1,2,4]oxadiazol-3-yl]-pyrrolidin-1-yl}-(5-methoxy-4-methyl-2-[1,2,3]triazol-2-yl-phenyl)-methanone] | – | –
1 | 13 | COc1cc(C(=O)N2CCC[C@H]2c2noc(-c3cccc(F)c3OC)n2)c(-n2nccn2)cc1C [compound 341, {(S)-2-[5-(3-Fluoro-2-methoxy-phenyl)-[1,2,4]oxadiazol-3-yl]-pyrrolidin-1-yl}-(5-methoxy-4-methyl-2-[1,2,3]triazol-2-yl-phenyl)-methanone] | – | –
